For data set [1], the system named is RSV. The experiment in a line: 18:1 DEPX interference with RSV infection in vivo (BALB/c mice). Also on record: species or system mouse. As to the method: Six-week-old female BALB/c mice were obtained from Jackson Laboratory. Mice were anesthetized with isoflurane and through intranasal inoculation a 50 μL volume of PBS control, 18:1 DEPX lipid alone, 18:1 DEPX+RSV or RSV only was delivered to mice. Mice were infected with 1×10^7 pfu/mL RSV. 18:1 DEPX liposomes were delivered to mice at a final amount of 100 μg. For lipid antagonism, RSV and 18:1 DEPX were mixed together in PBS prior to inoculation. Five days following initial infection, mice were euthanized by asphyxiation with carbon dioxide following prescribed guidelines by the IACUC. Next, mice were dissected to expose the trachea where a small cut was made to insert a luer stub. The lungs were then lavaged with 1 mL of saline. The chest cavity was opened and the lungs perfused with PBS and then removed. The left lung was homogenized in 1 mL of serum-free DMEM, the homogenates were centrifuged at 3800 rcf for 15 minutes at 4° C. and supernatant was used for quantitative plaque assay analysis. Lower right lungs were fixed overnight in 10% buffered formalin, then dehydrated and paraffin-embedded. Lungs were then sliced and stained with Hematoxylin-Eosin (H&E) for microscopy pictures and histopathological scoring. Total cell counts were determined from BALF and cell types were assessed by cytospin. IFN-γ was quantified by ELISA from the cell-free supernatants of BALF. The upper right lung was homogenized, RNA was extracted, converted to cDNA and RSV replication was determined by quantitative PCR of the F protein.
Female BALB/C mice were obtained from Jackson Laboratories at 6 weeks of age. The experiment consisted of four groups, a PBS control, 18:1 DEPX liposomes alone, 18:1 DEPX liposomes+RSV and RSV alone. Mice were inoculated with RSV at 1×10^7 pfu/mL. 100 μg 18:1 DEPX was the dose tested for protective effects in the mouse lung. Each mouse group underwent intranasal inoculation for delivery of experimental conditions in a final volume of 50 μL. Mice were monitored daily and body weight was recorded. At the height of RSV infection on day 5, the mice were euthanized. Bronchoalveolar lavage fluid (BALF) was collected, the chest cavity was opened and the lungs removed. The left lobe of the lungs was homogenized in serum-free DMEM, centrifuged at 3800 rcf for 15 minutes at 0° C. and the supernatant collected for quantitative plaque assay described in the previous chapter. The lower right lobe of the lung was fixed overnight in 10% buffered formalin and then processed by paraffin embedding, slicing and fixing of the lung to a microscope slide and H&E staining. The upper right lobe of the lung was homogenized, RNA was extracted and converted to cDNA and then quantitative real-time PCR was used to determine RSV replication by quantification of the F protein. Cells within BALF were quantified and assessed for cell populations by cytospin. BALF supernatant was stored and subsequently used for IFNγ quantification.
On day 5 following RSV infection mice were sacrificed by carbon dioxide asphyxiation according to IACUC protocol. Mice were dissected to expose the trachea where a small cut was made for the insertion of a leur stub and the lungs were lavaged with 1 mL of saline. A 20 μL aliquot was obtained from BALF collected and cellular infiltration into the lungs was quantified using a hemocytometer. The remaining lavage fluid was centrifuged at 500×g for 5 minutes, supernatant was collected and cells were resuspended in PBS for cytospin. In studies shown in FIG. 11, mice were challenged with either saline (CNTL), or 10^7 virus (RSV), or virus plus 18:1 DEPX (18:1 DEPX+RSV), or lipid alone (18;1 DEPX). The mice received all agents in a volume of 50 μl applied intranasally. On day 6 the mice were euthanized and the lungs were lavaged with saline. The cells in the lavage were recovered by centrifugation and quantified by counting using a hemocytometer. In RSV infected mice cell numbers were ˜120×10^4. […]

Data set [2] in a line: Inflammatory burden caused by intranasal inoculation of 18:1 DEPX. It counts as in vivo, mouse. Here is the method: Doses of 18:1 DEPX ranging from 35 μg to 1 mg were administered to mice by intranasal inoculation. The inflammatory burden caused by delivery of the synthetic lipid to the mouse lung was assessed 24 hours following inoculation. At 24 hours, mice were sacrificed and BALF was collected. The cells in BALF were quantified and cell populations within the lavage fluid were assessed by staining and cytospin analysis.
In order to determine the dose of 18:1 DEPX that is used in RSV challenge experiments, the toxic effects of the lipid were studied by the inflammatory response it elicits following delivery. A range of doses of 18:1 DEPX, from 35 μg to 1 mg, was instilled intranasally to 6-8 week old female BALB/C mice. Mice were sacrificed 24 hours following lipid delivery to best assess immediate inflammatory response. Mouse lungs were lavaged with 1 mL PBS and BALF was assessed for total inflammatory cellular infiltrates quantitatively and further characterized for cell populations by cytospin.
Following quantification of cells in 1 mL BALF, cells were subjected to cytospin and fixed and stained on microscope slides. 500 cells were counted from each slide and the numbers of macrophages, neutrophils and lymphocytes recorded. Delivery of 18:1 DEPX to mice elicits an inflammatory response determined by the influx of neutrophils found in lavage. […] Therefore, a dose of 100 μg 18:1 DEPX was chosen to perform RSV challenge experiments.

[3] abbreviates: 18:1 DEPX alone, 100 μg intranasal.

Entries after “also recorded” stand apart in the source; their conditions may differ. Some results are limits rather than exact numbers.

As to `CCCCCCCCC=CCCCCCCCCOCC(COP(=O)(O)OCC(O)C(O)C(O)CO)OCCCCCCCCC=CCCCCCCCC` (mixture of isomers) [18:1 DEPX, sn-1-O-octadecenyl, sn-2-O-octadecenyl sn-3 glycerol phosphoxylitol], in data set [1] (setting [3]), the “daily body weight, lipid alone vs control mice” value is “no difference in daily body weight” and the “number of cells in lavage, lipid alone vs control” value is “no difference in number of cells”. Besides, the “IFNγ in BALF compared to RSV alone” value in data set [1] (18:1 DEPX+RSV mice) is “reduced; also recorded: significantly lower”. In addition, the “cell numbers in lavage” value in data set [1] (18:1 DEPX+RSV mice, 1 mL BALF, FIG. 11) was ~20×10^4. Moreover, in data set [1] (18:1 DEPX+RSV mice, day 5), the “IFNγ in BALF” value is given as “Around 1 ng/mL”. Besides, in data set [1] (18:1 DEPX+RSV vs RSV alone), the “cellular infiltration into the lungs (BALF)” value was “suppresses an overabundance of cellular infiltration; also recorded: decreased number of inflammatory cellular infiltrates; also recorded: suppresses influx of inflammatory cells; also recorded: reduced cellular infiltrates; also recorded: significantly lower amounts of cellular infiltrates” and the “reduction of viral plaque number” value turned out to be 50%. The lung histopathology result in data set [1] (18:1 DEPX+RSV vs RSV alone, H&E) is reported as “appeared less affected by the virus”. Further, in data set [1] (first viral challenge experiment), the “reduction in RSV expression (qPCR)” value turned out to be 2.6 fold. For the same compound, the “reduction of RSV expression by a factor of (qPCR)” value in data set [1] (latter two experiments) was 6.2. The “viral load / RSV infection in lung compared to RSV mice” value in data set [1] (plaque assay and qPCR) is reported as “reduces viral copy number; also recorded: inhibited RSV infection; also recorded: reduced viral load”. In addition, the “BALF cell counts compared to PBS control” value in data set [2] (35 μg, 75 μg, 150 μg and 250 μg intranasal, 24 hours) was “did not have cell counts distinguishable from the control”. In data set [2] (75 μg intranasal, 24 hours), the “neutrophils in BALF (cytospin)” value was “significant numbers of neutrophils”. Besides, the “BALF cell counts compared to PBS control” value in data set [2] (300 μg, 500 μg and 1 mg intranasal, 24 hours) is recorded as “significantly higher cell counts”. Also, the mortality result in data set [2] (1 mg intranasal) is “One mouse in the group that received 1 mg of 18:1 DEPX died”. Also, in data set [2] (intranasal, 24 hours), the “dose giving significant cellular infiltrates compared to control mice” value was at least 300 µg and the “doses accompanied with significant cellular infiltrates compared with PBS control” value is at least 300 µg.
